Assays:
COX-1 = COX-1 (Ovis aries, UniProt P05979); experiment: COX-1 inhibition assay (as disclosed in Chem. Med. Chem. 2012, 7, 629-641); format: biochemical
Description: The biological assays were carried out as disclosed in Chem. Med. Chem. 2012, 7, 629 - 641.

[1] = system: ovarian surface epithelial cells allografted in female nude mice; conditions: after treatment with SC-560, recent reports; cited from earlier work

Chain of COX-1 (P05979 25-600): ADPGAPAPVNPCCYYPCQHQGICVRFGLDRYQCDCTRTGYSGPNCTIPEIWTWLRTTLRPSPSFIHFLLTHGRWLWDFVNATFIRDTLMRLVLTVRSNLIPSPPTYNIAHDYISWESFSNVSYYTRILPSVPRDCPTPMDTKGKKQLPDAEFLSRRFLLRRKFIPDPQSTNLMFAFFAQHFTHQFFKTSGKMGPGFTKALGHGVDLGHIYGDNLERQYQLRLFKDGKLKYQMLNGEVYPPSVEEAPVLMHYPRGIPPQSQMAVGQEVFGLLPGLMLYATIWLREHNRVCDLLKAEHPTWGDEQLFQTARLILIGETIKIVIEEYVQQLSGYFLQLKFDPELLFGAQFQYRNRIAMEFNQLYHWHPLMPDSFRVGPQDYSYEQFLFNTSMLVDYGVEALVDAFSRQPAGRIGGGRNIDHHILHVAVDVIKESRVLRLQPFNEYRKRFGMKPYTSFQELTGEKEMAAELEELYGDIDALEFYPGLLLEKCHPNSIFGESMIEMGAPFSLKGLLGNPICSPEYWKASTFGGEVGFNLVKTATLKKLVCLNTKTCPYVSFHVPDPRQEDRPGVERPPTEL

Row | IC50 (COX-1) [nM] | SMILES | tumor growth [1]
1 | 76 | COc1ccc(-c2noc(C)c2-c2ccc(OC)cc2)cc1 [(III), 3,4-bis(4-methoxyphenyl)-5-methylisoxazole] | 
2 |  | COc1ccc(-n2nc(C(F)(F)F)cc2-c2ccc(Cl)cc2)cc1 [SC-560] | significantly reduction of tumor growth

Source: patent publication EP2948187B1, “HETEROCYCLES AND THEIR RADIOLABELED ANALOGS USEFUL AS COX-1 SELECTIVE INHIBITORS” (Universita' Degli Studi di Bari, priority 2013, dated 2014)
